The text below walks through data of US20230099803A1, “OXAZOLIDINONE FOR TREATMENT OF INFECTIONS WITH MYCOBACTERIUM TUBERCULOSIS” (priority 2017, published 2023).

≈ marks a conversion by molar mass, not a printed value. Where two headings read alike, the source gives them in different places. Bounds are passed on as bounds.

Assay [1] concerns Enterococcus faecalis. Briefly: MIC90 broth microdilution. The format is cell-based. The following applies: ATCC19433, ATCC 19433, 35° C., 18 hours.
Assay [2] relates to Mycobacterium tuberculosis. Particulars: values marked with literature reference (^4,11 or ^15), cited from earlier work.
Assay [3] relates to Staphylococcus aureus methicillin-sensitive. As to the kind of experiment: MIC90 broth microdilution. The format is cell-based. The following applies: ATCC29213, ATCC 29213, 35° C., 18 hours. In general terms: Dilution methods test growth across graded concentrations, often in twofold steps.
The test system of assay [4] is Staphylococcus aureus. The following applies: general statement on linezolid; cited from earlier work.
Assay [5] relates to Acinetobacter baumannii ACBA. As to the kind of experiment: MIC90 broth microdilution. The format is cell-based. Particulars: patient isolate ACBA, 35° C., 18 hours.
Assay [6] deals with Acinetobacter baumannii ATCC 19606. As to the kind of experiment: MIC90 broth microdilution. The format is cell-based. Particulars: ATCC19606, strain ATCC 19606, 35° C., 18 hours.
A further assay relates to Klebsiella pneumoniae. Briefly: MIC90 broth microdilution. It counts as cell-based. Particulars: for MIC90: Klebsiella pneumoniae, ATCC35657, ATCC 35657, 35° C., 18 hours.
The test system of assay [7] is Acinetobacter baumannii 6M-1b. As to the kind of experiment: MIC90 broth microdilution. The following applies: 6M1B, environmental strain 6M-1b, 35° C., 18 hours. The format is cell-based.
For another assay, the system named is Pseudomonas aeruginosa. As to the kind of experiment: MIC90 broth microdilution. The format is cell-based. The following applies: for MIC90: Pseudomonas aeruginosa, PA14, 35° C., 18 hours.
A further assay deals with Enterobacter cloacae. Briefly: MIC90 broth microdilution. The format is cell-based. The following applies: for MIC90: Enterobacter cloacae, ATCC13047, ATCC 13047, 35° C., 18 hours.
For assay [8], the system named is Mycobacterium tuberculosis. Briefly: MIC90 broth macrodilution. Particulars: H37Rv; 7H9 broth, fourteen days at 37° C.
The subject of another assay is Mycobacterium abscessus. Briefly: MIC90 broth microdilution. The following applies: for MIC90: Mycobacteroides abscessus, ATCC19977, 72 h, ATCC 19977, 30° C., 3 days. The format is cell-based.
The next assay has as its system Mycobacterium avium. As to the kind of experiment: MIC90 broth microdilution. The format is cell-based. The following applies: for MIC90: Mycobacterium avium, 168 h, strain 104, seven days at 37° C.
Assay [9] has as its system Staphylococcus aureus.
Assay [10] has as its system Staphylococcus aureus. As to the kind of experiment: Minimum bactericidal concentration (MBC99.9). The format is cell-based. Particulars: up to 8 times MIC90.
Assay [11] concerns Mycobacterium tuberculosis. As to the kind of experiment: Minimum bactericidal concentration (MBC99.9). It counts as cell-based.
Assay [12] relates to Enterococcus faecalis. Briefly: Checkerboard titration assay. Particulars: T145 combined with doripenem, biapenem, faropenem and tebipenem; 1x to 1/16x MIC90. The format is cell-based.
Assay [13] deals with methicillin-resistant Staphylococcus aureus. As to the kind of experiment: Checkerboard titration assay. It counts as cell-based. Particulars: T145 combined with doripenem, biapenem, faropenem and tebipenem; 1x to 1/16x MIC90.
For assay [14], the system named is methicillin-resistant Staphylococcus aureus ATCC 43300. As to the kind of experiment: MIC90 determination. The format is cell-based. The following applies: ATCC43300, methicillin-resistant strain ATCC 43300.
Assay [15] deals with Enterococcus faecalis. As to the kind of experiment: Minimum bactericidal concentration (MBC99.9). It counts as cell-based. The following applies: up to 8 times MIC90.
The subject of assay [16] is Enterococcus faecalis.
Assay [17] deals with Mycobacterium tuberculosis. Briefly: Checkerboard titration assay. Particulars: T145 combined with isoniazid or rifampicin. The format is cell-based. The source says: The inventors also evaluated if any drug-drug interaction existed between T145 and isoniazid or rifampicin, two drugs that comprise the backbone of tuberculosis treatment today, against Mycobacterium tuberculosis using the checkerboard assay as described above. Any antagonism or synergy between T145 and isoniazid or rifampicin is not observed, and therefore that activity of T145 against Mycobacterium tuberculosis is indifferent to that of isoniazid or rifampicin.
This assay is a modification of the broth dilution assay and was carried out as described. In summary, each well containing 10^5 CFU received two drugs each in two fold dilutions below their respective MIC90. The suspensions are incubated at 37° C. and growth was evaluated as described above. Fractional Inhibitory Concentration (FIC) of a drug in a combination that inhibits bacterial growth is the concentration of the drug in the well divided by MIC90 of the drug if used alone. The sum of FIC of each drug in the combination is the FIC index. In each well where bacterial growth was absent, FIC index was calculated and an average FIC index was determined. Drug-drug antagonism was inferred if average FIC index is >2, indifference if 0.5-2.0 and synergy if ≤ 0.5.

Assay [18] relates to methicillin-sensitive Staphylococcus aureus. As to the kind of experiment: Checkerboard titration assay. Particulars: T145 combined with doripenem, biapenem, faropenem and tebipenem; 1x to 1/16x MIC90. The format is cell-based.
[19] abbreviates: Acinetobacter baumannii, read-out: MIC90.

`C[C@@H](O)[C@H]1C(=O)N2C(C(=O)[O-])=C(SC3Cn4cnc[n+]4C3)[C@H](C)[C@H]12` (stereo partly shown) [Biapenem]: the values for the MIC90 (against Enterococcus faecalis [1]; in [2]; in assay [3]) were 0.25 to 0.5 µg/mL (≈ 0.713 to 1.43 µM), 2.5-5.0 ^15 µg/ml and 0.007 to 0.015 µg/mL (≈ 0.02 to 0.0428 µM), respectively.

Turning to `C[C@@H](O)[C@H]1C(=O)N2C(C(=O)O)=C(S[C@@H]3CN[C@H](CNS(N)(=O)=O)C3)[C@H](C)[C@H]12` [Doripenem], the MIC90 is 0.25 to 0.5 µg/mL (≈ 0.595 to 1.19 µM) in the assay with Enterococcus faecalis [1], 2.5-5.0 ^15 µg/ml in assay [2] and 0.003 to 0.007 µg/mL (≈ 0.00713 to 0.0166 µM) in assay [3].

For the molecule `C[C@@H](O)[C@H]1C(=O)N2C(C(=O)O)=C([C@H]3CCCO3)S[C@H]12` [Faropenem], the MIC90 in the assay with Enterococcus faecalis [1] was 0.25 to 0.5 µg/mL (≈ 0.876 to 1.75 µM); in assay [2], 2.5-5.0 ^15 µg/ml; in [3] it was 0.015 to 0.03 µg/mL (≈ 0.0526 to 0.105 µM).

For `CC(=O)NC[C@H]1CN(c2ccc(N3CCOCC3)c(F)c2)C(=O)O1` [Linezolid], the MIC90 in the assay on Enterococcus faecalis [1] is 1 to 2 µg/mL (≈ 2.96 to 5.93 µM); in assay [2] it was 0.2-2.0 ^4,11 µg/ml; in assay [2] (listed as linezolid) it was 0.5 to 2.0 µg/mL; in assay [5] (setting [19]), over 64 µg/mL; in [5], over 64 µg/mL; in assay [6], over 64 µg/mL. Also, the MIC90 is 16 to 32 µg/mL (≈ 47.4 to 94.9 µM) against Klebsiella pneumoniae; 0.25 to 0.5 µg/mL (≈ 0.741 to 1.48 µM) in assay [7]; 1 to 2 µg/mL (≈ 2.96 to 5.93 µM) in [3]; over 64 µg/mL in the assay on Pseudomonas aeruginosa; over 64 µg/mL in the assay on Enterobacter cloacae. In the assay with Staphylococcus aureus [4], the “bactericidal or bacteriostatic activity” value is reported as “bacteriostatic”.

Take `C[C@@H](O)[C@H]1C(=O)N2C(C(=O)O)=C(S[C@@H]3CN[C@H](C(=O)N(C)C)C3)[C@H](C)[C@H]12` [Meropenem]: the MIC90 against Enterococcus faecalis [1] is 4 to 8 µg/mL (≈ 10.4 to 20.9 µM); in [5] (setting [19]) it was over 64 µg/mL; in [5] it was over 64 µg/mL; in assay [8] it was 4 to 8 µg/mL; in [6] it was over 64 µg/mL; with Klebsiella pneumoniae, under 0.06 µg/mL. For the same molecule, the MIC90 against Mycobacterium abscessus was over 64 µg/mL; in assay [7], 1 to 2 µg/mL (≈ 2.61 to 5.22 µM); in assay [3] it was 0.06 to 0.13 µg/mL (≈ 0.156 to 0.339 µM); against Pseudomonas aeruginosa, 0.25 to 0.5 µg/mL (≈ 0.652 to 1.3 µM); with Mycobacterium avium, over 64 µg/mL; against Enterobacter cloacae, 0.13 to 0.25 µg/mL (≈ 0.339 to 0.652 µM).

With `CC(=O)NC[C@H]1CN(c2ccc3c(c2)Oc2ccccc2O3)C(=O)O1` [T145, N-(((S)-3-(dibenzo[b,e][1,4]dioxin-7-yl)-2-oxooxazolidin-5-yl)methyl)acetamide], the MIC90 was 0.25 to 0.5 µg/mL (≈ 0.735 to 1.47 µM) with Enterococcus faecalis [1]; over 64 µg/mL in [5] (setting [19]); over 64 µg/mL in assay [5]; 0.5 to 1.0 µg/mL in assay [8]; 32 to 64 µg/mL (≈ 94 to 188 µM) in assay [6]; over 64 µg/mL against Klebsiella pneumoniae. Also, the MIC90 in the assay with Mycobacterium abscessus is over 64 µg/mL; in [7], 0.25 to 0.5 µg/mL (≈ 0.735 to 1.47 µM); in assay [3], 0.5 to 1 µg/mL (≈ 1.47 to 2.94 µM); in assay [14] it was 0.5 to 1 µg/mL (≈ 1.47 to 2.94 µM); against Pseudomonas aeruginosa it was over 64 µg/mL; against Mycobacterium avium, over 64 µg/mL. In the assay with Enterobacter cloacae, this molecule gave an MIC90 of over 64 µg/mL. The “selection of spontaneous resistant mutants” value with Staphylococcus aureus [9] and with Enterococcus faecalis [16] was “did not form classical distinct single colonies” each time. In addition, the “antimicrobial activity (in words)” value in the assay on Klebsiella pneumoniae, with Mycobacterium abscessus, in the assay on Pseudomonas aeruginosa, in the assay on Mycobacterium avium and with Enterobacter cloacae was “no activity” each time. The “bactericidal or bacteriostatic activity” value is on record as “bacteriostatic” in the assay with Staphylococcus aureus [10]; “bactericidal” in assay [11] (1, 2, 4 and 8 times MIC90); “bacteriostatic” in the assay on Enterococcus faecalis [15]. In addition, in assay [11] (Mycobacterium tuberculosis, concentration at which 99.9% of bacilli are killed), the MBC turned out to be 2 µg/mL (≈ 5.88 µM). Further, the “drug-drug interaction (synergy, indifference or antagonism)” value (with Enterococcus faecalis [12]; in assay [13]; in [17]; in assay [18]) was “indifferent” throughout.

For the molecule `C[C@@H](O)[C@H]1C(=O)N2C(C(=O)O)=C(SC3CN(C4=NCCS4)C3)[C@H](C)[C@H]12` [Tebipenem], the results for the MIC90 (in the assay with Enterococcus faecalis [1]; in [2]; in assay [3]) were 0.25 to 0.5 µg/mL (≈ 0.652 to 1.3 µM), 1.25-2.5 ^15 µg/ml and 0.03 to 0.06 µg/mL (≈ 0.0782 to 0.156 µM), respectively.

For orientation: MIC90 means an inhibitory concentration at the 90% level, which refers to growth in some studies and to a panel of isolates in others. In general, MBC refers to the lowest tested concentration that kills the bacteria rather than only halting them.
